Assay results published in patent publication US20230174575A1 (priority 2020, published 2023).
Read-outs that look alike come from different tables or passages of the source.

Key:
[1] = Cell toxicity against Vero cells by MTT assay; settings: African green monkey
Experimental: (§1) Cell toxicity was monitored by establishing the effect of lysozyme HCl against Vero cells (epithelial cells of monkey kidneys). The cells were seeded in 96-well plates at the concentration of 1×10^4 cells/well. 24 hours after seeding, the cells were treated with serial dilutions of lysozyme HCl or chloroquine (as control), in a final volume of 200 in triplicate. After 72 hours' incubation at 37° C. with 5% CO2, cell viability was measured by MTT assay (D'Alessandro, M. et al., Differential effects on angiogenesis of two antimalarial compounds, dihydroartemisinin and artemisone: Implications for embryotoxicity, Toxicology. 241 (2007) 66-74. Doi: 10.1016/j.tox.2007.08.084).
(§2) The data were calculated as percentage cell viability using the formula:
(§3) [(absorbance of sample−blank of cell-free sample)/mean absorbance of control of media]×100.
(§4) The cytotoxicity of ovotransferrin and chloroquine (CQ) was measured by MTT assay, similarly to the method used for lysozyme HCl.

Vero cells = test: Cell toxicity against Vero cells by MTT assay; settings: MTT assay
Experimental: as §1, §2, §3, §4

SARS-CoV-2 [2] = test: Virucidal activity, plaque test; format: cell-based
SARS-CoV-2 [3] = format: cell-based; settings: for Percentage replication of SARS-CoV-2 (lysozyme only): no ovotransferrin
[4] = system: Micrococcus lysodeikticus cells; test: Enzyme activity, enzymatic turbidimetric method (FIP method); format: biochemical
Experimental: • Flow rate: 1 ml/min Determination of assay value (enzymatic turbidimetric method using Micrococcus lysodeikticus cells): according to the FIP method (Pharmaceutical Enzyme, Ed 1997, 84, 375) and J Pharm Pharmacol. 2001; 53 (4); 549-54.

Compound: CCN(CC)CCCC(C)Nc1ccnc2cc(Cl)ccc12 (stereo not drawn) [CQ, chloroquine, reference compound]
- CC50 at 72 h [1]: 95.3 ± 18 µM
- CC10 (Vero cells; unit not given): 20.93±4.39

Compound: lysozyme hydrochloride [Lysozyme HCl]
- mean PFU/ml (average of three experiments) (SARS-CoV-2 [2]; 0.42 mg/ml): 70 PFU/ml
- percentage (PFU relative to untreated infected cells) (SARS-CoV-2 [2]; 0.42 mg/ml): 83.9%
- mean PFU/ml (average of three experiments) (SARS-CoV-2 [2]; 0.56 mg/ml): 61.65 PFU/ml
- percentage (PFU relative to untreated infected cells) (SARS-CoV-2 [2]; 0.56 mg/ml): 84.1%
- mean PFU/ml (average of three experiments) (SARS-CoV-2 [2]; 1 mg/ml): 75 PFU/ml
- percentage (PFU relative to untreated infected cells) (SARS-CoV-2 [2]; 1 mg/ml): (<100%)
- reduction of infectivity of SARS-CoV-2 (SARS-CoV-2 [2]; any of the doses used (0.42, 0.56, 1 mg/ml), plaque assay): did not reduce the infectivity
- antiviral activity against SARS-CoV-2 infection in the in vitro test (SARS-CoV-2 [3]): high antiviral activity
- percentage viral replication (SARS-CoV-2 [3]): very low, and close to zero
- % viral replication (average of 9 replications) (SARS-CoV-2 [3]; Dry heat treatment (74° C. for 60 min), 0.33 mg/mL): 83.24%
- % viral replication (average of 9 replications) (SARS-CoV-2 [3]; Dry heat treatment (74° C. for 60 min), 0.5 mg/mL): 42.05%
- % viral replication (average of 9 replications) (SARS-CoV-2 [3]; Dry heat treatment (74° C. for 60 min), 0.75 mg/mL): 11.31%
- % viral replication (average of 9 replications) (SARS-CoV-2 [3]; Dry heat treatment (99° C. for 40 min), 0.33 mg/mL): 60.32%
- % viral replication (average of 9 replications) (SARS-CoV-2 [3]; Dry heat treatment (99° C. for 40 min), 0.5 mg/mL): 35.56%
- % viral replication (average of 9 replications) (SARS-CoV-2 [3]; Dry heat treatment (99° C. for 40 min), 0.75 mg/mL): 16.58%
- % viral replication (average of 9 replications) (SARS-CoV-2 [3]; Heat treatment in aqueous solution, 90° C. for 3 minutes, 0.33 mg/mL): 87.85%
- % viral replication (average of 9 replications) (SARS-CoV-2 [3]; Heat treatment in aqueous solution, 90° C. for 3 minutes, 0.5 mg/mL): 67.97%
- % viral replication (average of 9 replications) (SARS-CoV-2 [3]; Heat treatment in aqueous solution, 90° C. for 3 minutes, 0.75 mg/mL): 15.55%
- % viral replication (average of 9 replications) (SARS-CoV-2 [3]; Heat treatment in aqueous solution, 90° C. for 6 minutes, 0.33 mg/mL): 87.96%
- % viral replication (average of 9 replications) (SARS-CoV-2 [3]; Heat treatment in aqueous solution, 90° C. for 6 minutes, 0.5 mg/mL): 51.62%
- % viral replication (average of 9 replications) (SARS-CoV-2 [3]; Heat treatment in aqueous solution, 90° C. for 6 minutes, 0.75 mg/mL): 9.88%
- % viral replication (average of 9 replications) (SARS-CoV-2 [3]; Heat treatment in aqueous solution, 90° C. for 20 minutes, 0.33 mg/mL): 78.00%
- % viral replication (average of 9 replications) (SARS-CoV-2 [3]; Heat treatment in aqueous solution, 90° C. for 20 minutes, 0.5 mg/mL): 36.10%
- % viral replication (average of 9 replications) (SARS-CoV-2 [3]; Heat treatment in aqueous solution, 90° C. for 20 minutes, 0.75 mg/mL): 18.30%
- % viral replication (average of 9 replications) (SARS-CoV-2 [3]; Heat treatment in aqueous solution, 90° C. for 25 minutes, 0.33 mg/mL): 42.06%
- % viral replication (average of 9 replications) (SARS-CoV-2 [3]; Heat treatment in aqueous solution, 90° C. for 25 minutes, 0.5 mg/mL): 24.61%
- % viral replication (average of 9 replications) (SARS-CoV-2 [3]; Heat treatment in aqueous solution, 90° C. for 25 minutes, 0.75 mg/mL): 2.62%
- % viral replication (average of 9 replications) (SARS-CoV-2 [3]; No heat treatment, 0.33 mg/mL): 79.72%
- % viral replication (average of 9 replications) (SARS-CoV-2 [3]; No heat treatment, 0.5 mg/mL): 58.13%
- % viral replication (average of 9 replications) (SARS-CoV-2 [3]; No heat treatment, 0.75 mg/mL): 25.51%
- Percentage replication of SARS-CoV-2 (lysozyme only) (SARS-CoV-2 [3]; lysozyme HCl 0.32 mg/ml): 93%
- Percentage replication of SARS-CoV-2 (lysozyme only) (SARS-CoV-2 [3]; lysozyme HCl 0.42 mg/ml): 89%
- Percentage replication of SARS-CoV-2 (lysozyme only) (SARS-CoV-2 [3]; lysozyme HCl 0.56 mg/ml): 93%
- viral replication inhibited by (SARS-CoV-2 [3]; lysozyme HCl 0.75 mg/ml, in the absence of ovotransferrin): about 62%
- Percentage replication of SARS-CoV-2 (lysozyme only) (SARS-CoV-2 [3]; lysozyme HCl 0.75 mg/ml): 62%
- Enzyme activity (turbidimetric method) ([4]; No heat treatment): 98.7
- Enzyme activity (turbidimetric method) ([4]; after dry heat treatment (74° C. for 60 min)): 98.8
- Enzyme activity (turbidimetric method) ([4]; after dry heat treatment (99° C. for 40 min)): 98.1
- Enzyme activity (turbidimetric method) ([4]; after heat treatment in aqueous solution, 90° C. for 3 minutes): 97.3
- Enzyme activity (turbidimetric method) ([4]; after heat treatment in aqueous solution, 90° C. for 6 minutes): 97.4
- Enzyme activity (turbidimetric method) ([4]; after heat treatment in aqueous solution, 90° C. for 20 minutes): 92.1
- Enzyme activity (turbidimetric method) ([4]; after heat treatment in aqueous solution, 90° C. for 25 minutes): 88.8
- CC50 for Vero cells (Vero cells; 72 hours): 13.3 mg/mL

Compound: Heat-treated lysozyme: lysozyme HCl heat-treated at 99° C. for 40 minutes
- mean PFU/ml (average of three experiments) (SARS-CoV-2 [2]; 0.42 mg/ml): 58.61 PFU/ml
- percentage (PFU relative to untreated infected cells) (SARS-CoV-2 [2]; 0.42 mg/ml): 57.2%
- infectivity of SARS-CoV-2 reduced by (SARS-CoV-2 [2]; 0.42 mg/ml, plaque assay): 57.2%
- mean PFU/ml (average of three experiments) (SARS-CoV-2 [2]; 0.56 mg/ml): 60.41 PFU/ml
- percentage (PFU relative to untreated infected cells) (SARS-CoV-2 [2]; 0.56 mg/ml): 58.9%
- infectivity of SARS-CoV-2 reduced by (SARS-CoV-2 [2]; 0.56 mg/ml, plaque assay): 58.9%
- mean PFU/ml (average of three experiments) (SARS-CoV-2 [2]; 1 mg/ml): 71.32 PFU/ml
- percentage (PFU relative to untreated infected cells) (SARS-CoV-2 [2]; 1 mg/ml): (69.6%)
- infectivity of SARS-CoV-2 reduced by (SARS-CoV-2 [2]; 1 mg/ml, plaque assay): 69.6%
